Experimental data taken from ChEMBL document CHEMBL6153037, “Developing dual-responsive quinolinium prodrugs of 8-hydroxyquinoline by harnessing the dual chelating sites” (Eur J Med Chem, 2025).
Calls of active or inactive are those of the source. The calls are words filed in the database; no cut-off is given here.

Tests used:
MDA-MB-231 [1] = assay: Inhibition of mitochondrial membrane potential in human MDA-MB-231 cells incubated for 24 hrs in presence of UV by JC-1 dye based analysis (reference value: 5.51 %); assay type: functional
MDA-MB-231 [2] = assay: Induction of cell cycle arrest in human MDA-MB-231 cells assessed as accumulation at G0/G1 phase by PI staining based flow cytometry (reference value: 43.25 %); assay type: functional
MDA-MB-231 [3] = assay: Induction of apoptosis in human MDA-MB-231 cells assessed as necrotic cells incubated for 24 hrs in presence of UV by Annexin V-FITC/PI staining based flow cytometry (reference value: 3.6 %); assay type: functional
MDA-MB-231 [4] = assay: Induction of apoptosis in human MDA-MB-231 cells assessed as necrotic cells incubated for 24 hrs by Annexin V-FITC/PI staining based flow cytometry (reference value: 3.6 %); assay type: functional
MDA-MB-231 [5] = assay: Induction of apoptosis in human MDA-MB-231 cells assessed as viable cells incubated for 24 hrs in presence of UV by Annexin V-FITC/PI staining based flow cytometry (reference value: 92.06 %); assay type: functional
MDA-MB-231 [6] = assay: Cytotoxicity against human MDA-MB-231 cells incubated for 48 hrs in presence of UV by MTT assay; assay type: functional, cell-based
MDA-MB-231 [7] = assay: Induction of apoptosis in human MDA-MB-231 cells assessed as viable cells incubated for 24 hrs by Annexin V-FITC/PI staining based flow cytometry (reference value: 92.06 %); assay type: functional
[8] = Hepatorenal toxicity in ICR mouse assessed as change in serum creatinine level at 30 mg/kg, iv measured after 48 hrs; assay type: organism-based; details: in vivo
[9] = Hepatorenal toxicity in ICR mouse assessed as change in ALT level at 30 mg/kg, iv measured after 48 hrs; assay type: organism-based; details: in vivo
[10] = Prodrug conversion in PBS at pH 7.4 exposed to UV assessed as 8-HQ release by measuring retention time at 50 uM measured for 30 mins by HPLC analysis; assay type: ADME; details: buffer, pH 7.4, 0.5 h
MDA-MB-231 [11] = assay: Induction of cell cycle arrest in human MDA-MB-231 cells assessed as accumulation at G0/G1 phase in presence of UV by PI staining based flow cytometry (reference value: 43.25 %); assay type: functional
[12] = Hepatorenal toxicity in ICR mouse assessed as change in BUN level at 30 mg/kg, iv measured after 48 hrs; assay type: organism-based; details: in vivo
MDA-MB-231 [13] = assay: Inhibition of mitochondrial membrane potential in human MDA-MB-231 cells incubated for 24 hrs by JC-1 dye based analysis (reference value: 5.51 %); assay type: functional
MDA-MB-231 [14] = assay: Induction of apoptosis in human MDA-MB-231 cells assessed as late apoptotic cells incubated for 24 hrs by Annexin V-FITC/PI staining based flow cytometry (reference value: 2.4 %); assay type: functional
MDA-MB-231 [15] = assay: Induction of apoptosis in human MDA-MB-231 cells assessed as early apoptotic cells incubated for 24 hrs in presence of UV by Annexin V-FITC/PI staining based flow cytometry (reference value: 1.94 %); assay type: functional
MDA-MB-231 [16] = assay: Cytotoxicity against human MDA-MB-231 cells incubated for 48 hrs in absence of UV by MTT assay; assay type: functional, cell-based
MDA-MB-231 [17] = assay: Induction of apoptosis in human MDA-MB-231 cells assessed as early apoptotic cells incubated for 24 hrs by Annexin V-FITC/PI staining based flow cytometry (reference value: 1.94 %); assay type: functional
[18] = Hepatorenal toxicity in ICR mouse assessed as change in AST level at 30 mg/kg, iv measured after 48 hrs; assay type: organism-based; details: in vivo
[19] = Prodrug conversion in PBS at pH 7.4 exposed to UV assessed as 8-Hydroxy-1-(4-(4,4,5,5-tetramethyl-1,3,2-dioxaborolan-2-yl)benzyl)quinolin-1-ium bromide metabolite formation by measuring retention time at 50 uM measured for 30 mins by HPLC analysis; assay type: ADME; details: buffer, pH 7.4, 0.5 h
[20] = Prodrug conversion in PBS at pH 7.4 containing H2O2 assessed as PBAPE intermediate with exposed quinoline nitrogen by measuring retention time at 50 uM measured for 30 mins by HPLC analysis; assay type: ADME; details: buffer, pH 7.4, 0.5 h
MCF-10A = assay: Cytotoxicity against human MCF-10A cells exposed to UV incubated for 48 hrs by MTT assay; assay type: toxicity, cell-based
MDA-MB-231 [21] = assay: Induction of apoptosis in human MDA-MB-231 cells assessed as late apoptotic cells incubated for 24 hrs in presence of UV by Annexin V-FITC/PI staining based flow cytometry (reference value: 2.4 %); assay type: functional

For `Br.CC1(C)OB(c2ccc(C[n+]3cccc4cccc(OCc5ccccc5[N+](=O)[O-])c43)cc2)OC1(C)C`, the “inhibition (INH)” value (MDA-MB-231 [1]) was 62.81%, the Activity (MDA-MB-231 [2]) was 45.12% and the Activity (MDA-MB-231 [3]) was 4.21%. The Activity (MDA-MB-231 [4]) was 1.03%, the Activity (MDA-MB-231 [5]) was 52.82% and the Activity (MDA-MB-231 [6]) was “Dose-dependent-effect”. The Activity (MDA-MB-231 [7]) was 80.18%, the Activity [8] was “Non-toxic” and the Activity [9] was “Non-toxic”. The Retention_time [10] was 3.6 min, the Activity (MDA-MB-231 [11]) was 58.23% and the Activity [12] was “Non-toxic”. For the same compound, the “inhibition (INH)” value (MDA-MB-231 [13]) was 15.85%, the Activity (MDA-MB-231 [14]) was 10.76% and the Activity (MDA-MB-231 [15]) was 23.32%. The Activity (MDA-MB-231 [16]) was “inactive”, the Activity (MDA-MB-231 [17]) was 8.03% and the Activity [18] was “Non-toxic”. The Retention_time [19] was 16.4 min, the Retention_time [20] was 14.8 min and the Activity (MCF-10A) was “Non-toxic”. The Activity (MDA-MB-231 [21]) was 19.66%.
